Experimental data from patent publication US10532985B2, “Heterocycle and carbocycle derivatives having TRKA inhibitory activity” (Shionogi & Co., Ltd., priority 2014, dated 2020).

What was measured:
[1] = Test Example 9-2: Metabolism Stability Test; type: in vitro ADME; settings: human liver microsomes 0.5 mg protein/mL, 30 minutes, 37° C., 1 mmol/L NADPH
Procedure: (§1) Using commercially available pooled human hepatic microsomes, a compound of the present invention was reacted for a constant time, and a remaining rate was calculated by comparing a reacted sample and an unreacted sample, thereby, a degree of metabolism in liver was assessed.
(§2) A reaction was performed (oxidative reaction) at 37° C. for 0 minute or 30 minutes in the presence of 1 mmol/L NADPH in 0.2 mL of a buffer (50 mmol/L Tris-HCl pH 7.4, 150 mmol/L potassium chloride, 10 mmol/L magnesium chloride) containing 0.5 mg protein/mL of human liver microsomes. After the reaction, 50 μL of the reaction solution was added to 100 μL of a methanol/acetonitrile=1/1 (v/v), mixed and centrifuged at 3000 rpm for 15 minutes. The compound of the present invention in the supernatant was quantified by LC/MS/MS or Solid Phase Extraction (SPE)/MS, and a remaining amount of the compound of the present invention after the reaction was calculated, letting a compound amount at 0 minute reaction time to be 100%.

human TrkA [2] = target: T1, human TrkA (Homo sapiens, UniProt P04629); assay: Test Example 2: Human TrkA Inhibition Assay; type: biochemical; settings: Test Example 2
T1 construct: purchased Lifetechnologies PV3144
T1 sequence (P04629 33-796): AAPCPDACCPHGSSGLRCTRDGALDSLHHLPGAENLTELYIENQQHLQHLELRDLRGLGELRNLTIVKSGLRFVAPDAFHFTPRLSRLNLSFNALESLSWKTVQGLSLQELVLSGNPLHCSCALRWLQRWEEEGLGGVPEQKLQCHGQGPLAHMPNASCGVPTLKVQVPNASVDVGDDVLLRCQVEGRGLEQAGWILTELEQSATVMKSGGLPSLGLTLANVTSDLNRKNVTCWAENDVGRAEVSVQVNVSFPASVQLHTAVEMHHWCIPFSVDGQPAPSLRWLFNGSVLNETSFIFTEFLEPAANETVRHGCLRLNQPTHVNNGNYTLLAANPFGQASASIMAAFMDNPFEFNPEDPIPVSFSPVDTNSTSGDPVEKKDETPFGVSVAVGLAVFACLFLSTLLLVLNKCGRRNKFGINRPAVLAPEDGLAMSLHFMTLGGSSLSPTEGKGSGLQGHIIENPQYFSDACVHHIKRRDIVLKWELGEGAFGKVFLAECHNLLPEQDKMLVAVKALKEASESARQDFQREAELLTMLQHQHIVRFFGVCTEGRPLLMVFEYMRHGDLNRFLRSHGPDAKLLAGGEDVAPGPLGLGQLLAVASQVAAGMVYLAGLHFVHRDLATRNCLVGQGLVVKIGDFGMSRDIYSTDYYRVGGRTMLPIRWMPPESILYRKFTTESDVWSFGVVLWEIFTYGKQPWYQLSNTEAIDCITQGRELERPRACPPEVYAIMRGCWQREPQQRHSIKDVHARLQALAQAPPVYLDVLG
In short: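 Mobility-shift kinase assay: 90 min reaction at room temperature, stopped with EDTA buffer; phosphorylated and non-phosphorylated fluorescent substrate measured, conversion ratio calculated. Inhibition % normalised between DMSO-only wells and no-TrkA wells.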

human TrkA [3] = target: T1, human TrkA; assay: Test Example 2-2: Human TrkA Inhibition Assay; type: biochemical
In short: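 Kinase (1 nmol/L) pre-incubated 15 min at room temperature with compound, then FL-peptide 27 (1.5 μmol/L) and ATP ([…]) added for 120 min at 37 °C; EDTA stop. Phosphorylated and unphosphorylated substrate separated by mobility-shift readout; IC50 by logistic regression over 10 concentrations.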

[4] = Test Example 9: Metabolism Stability Test; type: in vitro ADME; settings: human liver microsomes 0.5 mg protein/mL, 30 minutes, 37° C., 1 mmol/L NADPH
Procedure: as §1
as §2, with “LC/MS/MS,” for “LC/MS/MS or Solid Phase Extraction (SPE)/MS,”

[5] = human TrkA inhibition, class symbols A/B/C, read-out: IC50_nM

## COCCN1C[C@@H](NC(=O)Nc2c(C)c(-c3cnn(C)c3)nn2-c2ccccc2)[C@H](c2cccc(O)c2)C1 (racemic) [Compound I-96]
[1]
  remaining amount of compound after reaction: 90%
Human TrkA [2]; human TrkA 2.5 nmol/L, ATP 500 μmol/L, 90 min at room temperature, read-out: TrkA inhibitory activity IC50
  IC50: 29 nM
Human TrkA [3]; human TrkA 1 nmol/L, 120 min at 37° C., read-out: TrkA inhibition IC50
  IC50: 160 nM

## COCCN1C[C@@H](NC(=O)Nc2c(C)c(-c3cnn(C)c3)nn2-c2ccccc2)[C@H](c2ccc3ncsc3c2)C1 (racemic) [Compound I-107]
[1]
  remaining amount of compound after reaction: 92%
Human TrkA [2]; [5]
  IC50: < 100 nM

## COCCN1C[C@@H](NC(=O)Nc2c(C)c(-c3cnn(C)c3)nn2-c2ccccc2)[C@H](c2ccc3c(c2)NC(=O)CO3)C1 (racemic) [Compound I-136]
[1]
  remaining amount of compound after reaction: 104%
Human TrkA [2]; [5]
  IC50: 100 to 1000 nM

## COCCN1C[C@@H](NC(=O)Nc2c(C)c(-c3cnn(C)c3)nn2-c2ccccc2)[C@H](c2ccnc(C#N)c2)C1 (racemic) [Compound I-180]
Human TrkA [3]; [5]
  IC50: 100 to 1000 nM
[4]
  remaining amount of compound after reaction: 90%
